# Measurements taken from patent US20220143006A1, “METHODS OF TREATING CANCER WITH FARNESYLTRANSFERASE INHIBITORS” (Kura Oncology, Inc., priority 2019, published 2022).
# “Also recorded” adds a separate entry of the source.
# Columns and labels:
# [1] = tested on: Ras-dependent and -independent malignant tumors; details: cited from earlier work
# tumors in nude mice = details: cited from earlier work
# [2] = tested on: relapsed or refractory Peripheral T-Cell Lymphoma (PTCL); test: Phase 2 clinical study of tipifarnib in PTCL (NCT02464228): objective response by KIR mutation status, PTCL-NOS and AITL patients together; assay type: in vivo, human
# Protocol: (§1) This example describes an ongoing Phase 2 clinical study of tipifarnib with the primary objective being to assess the antitumor activity in terms of Overall Response Rate (ORR) of tipifarnib in approximately 18-30 eligible subjects eligible subjects with Peripheral T-Cell Lymphoma (PTCL) (ClinicalTRials.gov identifier: NCT02464228).
# (§2) Subjects receive tipifarnib administered at a starting dose of 300 mg, orally with food, twice a day (bid) on Days 1-21 in 28 day cycles (i.e. 3 weeks on/1 week off). Stepwise 100 mg dose reductions to control treatment-related, treatment-emergent toxicities were also allowed. Subjects who received tipifarnib bid on days 1-7 and days 15-21 in 28 day cycles during the conduct of earlier versions of this protocol were permitted to remain on that dose regimen at the discretion of the investigator. Alternatively, the subject was permitted to transition to receive a dose of 300 mg, orally with food, bid on days 1-21 of 28 day treatment cycles beginning on Day 1 of their next cycle. In the absence of unmanageable toxicities, subjects may continue to receive tipifarnib treatment for up to 12 months in the absence of disease progression and unmanageable toxicity. Treatment was permitted to continue beyond 12 months upon agreement of the Investigator and Sponsor.
# (§3) Tumor assessments are performed at screening, at the Day 22 visit (±5 days) performed during Cycles 2, 4, 6 and once every approximately 12 weeks (cycles 9, 12, 15, etc.) thereafter, until disease progression.
# (§4) Determination of objective tumor response is performed based on the Lugano Classification (Cheson 2014, Appendix II: The Lugano Classification) and/or measurable cutaneous disease according to the modified Severity Weighted Assessment Tool (mSWAT, Olsen 2011, Appendix III: Modified Severity Weighted Assessment Tool).
# (§5) Primary outcome measures: objective response rate (ORR) following treatment with tipfarnib. [Time Frame: 2 years]. Response assessments according to IWC and/or mSWAT.
# (§6) This Phase II study investigates the antitumor activity in terms of ORR of tipifarnib in approximately 18-30 eligible subjects with relapsed or refractory PTCL. The first 18 subjects were permitted to have the following PTCL sub-types: PTCL, not otherwise specified (PTCL-NOS), angioimmunoblastic T-cell lymphoma (AITL), ALK-positive and -negative anaplastic large cell lymphoma (ALCL), hepatosplenic T-cell lymphoma, enteropathy-associate T-cell lymphoma (EATL), extranodal natural killer (NK) T-cell lymphoma, nasal type and subcutaneous panniculitis-like T-cell lymphoma. The AITL expansion cohort (N=12) enrolls only subjects with AITL. Only consented subjects who meet all eligibility criteria were enrolled in the study. Eligible subjects received tipifarnib administered at a starting dose of 300 mg, orally with food, twice a day (bid) on Days 1-21 in 28 day cycles (i.e. 3 weeks on/1 week off). Stepwise 100 mg dose reductions to control treatment-related, treatment-emergent toxicities were also allowed. Subjects who received tipifarnib bid on days 1-7 and days 15-21 in 28 day cycles during the conduct of earlier versions of this protocol were permitted to remain on that dose regimen at the discretion of the investigator. Alternatively, the subject was permitted to transition to receive a dose of 300 mg, orally with food, bid on days 1-21 of 28 day treatment cycles beginning on Day 1 of their next cycle. In the absence of unmanageable toxicities, subjects may continue to receive tipifarnib treatment for up to 12 months in the absence of disease progression and unmanageable toxicity. Treatment was permitted to continue beyond 12 months upon agreement of the Investigator and Sponsor.
# (§7) A two-stage study design was used for the first 18 subjects in order to minimize the number of study subjects treated if tipifarnib were considered not sufficiently efficacious to grant further development in this subject population. […]
# [3] = tested on: unselected tumor populations (AML, MDS/CMML, urothelial cancer, breast cancer, PTCL/CTCL); details: single agent therapy, in man; cited from earlier work
# [4] = tested on: PTCL, not otherwise specified (PTCL-NOS); test: Phase 2 clinical study of tipifarnib in PTCL: objective response by KIR mutation status, PTCL-NOS patients; assay type: in vivo, human; details: FIG. 6, PTCL-NOS patients (N=9) with Q386E mutant of KIR3DL2
# Protocol: as §1, §2, §3, §4
# Primary outcome measures: objective response rate (ORR) following treatment with tipfarnib. [Time Frame: 2 years]. Response assessments according to IWC and/or mSWAT. […]
# [5] = tested on: angioimmunoblastic T-cell lymphoma (AITL); test: Phase 2 clinical study of tipifarnib in PTCL: objective response by KIR mutation status, AITL patients; assay type: in vivo, human
# Protocol: as §1, §2, §3, §4, §5, §6, §7
# [6] = FIG. 6, 14 patients with Q386E mutant of KIR3DL2 (PTCL-NOS N=9, AITL N=5)
# [7] = FIG. 6, patients (N=13) with wild type (wt) KIR3DL2 at position 386
# [8] = AITL, KIR3DL2 C336R/Q386E mutant, N=8
# [9] = FIG. 1, 9 AITL patients, carriers of D184N mutant of KIR2DL1
# [10] = FIG. 2, 9 AITL patients, carriers of E295D mutant of KIR2DL3
# [11] = FIG. 2, 9 AITL patients, carriers of R162T mutant of KIR2DL3
# [12] = FIG. 3, 9 AITL patients, carriers of Q149K, Q149R, and I154M mutants of KIR2DL4
# [13] = FIG. 5, 9 AITL patients, carriers of C336R and Q386E mutants of KIR3DL2
# [14] = FIG. 6, AITL patients (N=5) with Q386E mutant of KIR3DL2
# [15] = FIG. 7, subset of 10 AITL patients, carriers of C336R and Q386E mutants of KIR3DL2
smiles,measurement,setting,value
"NC(=O)N1CCC(CC(=O)N2CCC([C@H]3c4ncc(Br)cc4CCc4cc(Cl)cc(Br)c43)CC2)CC1 [lonafarnib, (+)-(R)-4-[2-[4-(3,10-dibromo-8-chloro-5,6-dihydro-11H-benzo[5,6]cyclohepta[1,2-b]pyridin-11-yl)piperidin-1-yl]-2-oxoethyl]piperidine-1-carboxamide]",activity in malignant tumors,[1],active
"CC[C@H](C)[C@@H](CO[C@@H](Cc1ccccc1)C(=O)N[C@@H](CCS(C)(=O)=O)C(=O)O)NC[C@@H](N)CS [L-739749, 2(S)-[2(S)-[2(R)-amino-3-mercapto]propylamino-3(S)-methyl]-pentyloxy-3-phenylpropionyl-methionine sulfone]",system toxicity,"tumors in nude mice; mouse, in vivo",without system toxicity
same,antitumor activity,tumors in nude mice; nude mice,potent antitumor activity
"Cn1cncc1[C@@](N)(c1ccc(Cl)cc1)c1ccc2c(c1)c(-c1cccc(Cl)c1)cc(=O)n2C [tipifarnib, (B)-6-[amino(4-chlorophenyl)(1-methyl-1H-imidazol-5-yl)methyl]-4-(3-chlorophenyl)-1-methyl-2(1H)-quinolinone]",ORR,[2]; [6],36%
same,objective responses: number of CRs,[2]; [6],3
same,objective responses: number of PDs,[2]; [6],8
same,objective responses: number of PRs,[2]; [6],2
same,objective responses: number of SD,[2]; [6],1
same,ORR,[2]; [7],8%
same,objective responses: number of PD,[2]; [7],9
same,objective responses: number of PR,[2]; [7],1
same,objective responses: number of SD,[2]; [7],3
same,safety and tolerability,[3],manageable safety profile; also recorded: reasonably well tolerated in man
same,ORR,[4],11%
same,objective responses: number of CR,[4],1
same,objective responses: number of progressive disease (PD),[4],8
same,"Clinical Benefit Rate (CR + PR + SD), patients/N","[5]; AITL, KIR3DL2 C336R/Q386E mutant",8/8
same,Clinical Benefit Rate (CR + PR + SD),[5]; [8],100%
same,"Overall Best Response: Complete Response (CR), number of patients",[5]; [8],4
same,"Overall Best Response: Partial Response (PR), number of patients",[5]; [8],2
same,"Overall Best Response: Stable Disease (SD), number of patients",[5]; [8],2
same,Overall Response Rate (CR + PR),[5]; [8],75%
same,"Clinical Benefit Rate (CR + PR + SD), patients/N","[5]; AITL, KIR3DL2 wild type",2/7
same,Clinical Benefit Rate (CR + PR + SD),"[5]; AITL, KIR3DL2 wild type, N=7",29%
same,"Overall Best Response: Partial Response (PR), number of patients","[5]; AITL, KIR3DL2 wild type, N=7",2
same,"Overall Best Response: Progressive Disease (PD), number of patients","[5]; AITL, KIR3DL2 wild type, N=7",5
same,Overall Response Rate (CR + PR),"[5]; AITL, KIR3DL2 wild type, N=7",29%
same,objective responses: number of complete responses (CR),[5]; [9],2
same,objective responses: number of partial responses (PR),[5]; [9],1
same,objective responses: number of complete responses (CR),"[5]; FIG. 1, 9 AITL patients, carriers of F202L mutant of KIR2DL1",2
same,objective responses: number of complete responses (CR),"[5]; FIG. 1, 9 AITL patients, carriers of G179R mutant of KIR2DL1",1
same,objective responses: number of partial responses (PR),"[5]; FIG. 1, 9 AITL patients, carriers of N178D mutant of KIR2DL1",1
same,objective responses: number of complete responses (CR),"[5]; FIG. 1, 9 AITL patients, carriers of R197T mutant of KIR2DL1",2
same,objective responses: number of complete responses (CR),[5]; [10],1
same,objective responses: number of partial responses (PR),[5]; [10],1
same,objective responses: number of complete responses (CR),[5]; [11],2
same,objective responses: number of partial responses (PR),[5]; [11],1
same,objective responses: number of complete responses (CR),[5]; [12],2
same,objective responses: number of partial responses (PR),[5]; [12],2
same,objective responses: number of complete responses (CR),[5]; [13],2
same,objective responses: number of partial responses (PR),[5]; [13],2
same,ORR,[5]; [14],80%
same,objective responses: number of complete responses (CR),[5]; [14],2
same,objective responses: number of partial responses (PR),[5]; [14],2
same,objective responses: number of complete responses (CR),[5]; [15],4
same,objective responses: number of partial responses (PR),[5]; [15],2
